Type in all cases: cell-based
Experiment [1] has as its system HDAC. Nature of the experiment: Cellular HDAC enzymatic assay (FLUOR DE LYS HDAC fluorometric cellular activity assay) in CD4 enriched Jurkat T cells. On the procedure:
(§1) Cellular HDAC enzymatic assay was conducted for 3 days with the CD4 enriched Jurkat T lymphocyte cells or B lymphocyte cells treated with various amounts of drugs using FLUOR DE LYS® HDAC fluorometric cellular activity assay kit (Enzo Life Sciences, Inc., cat. No: BML-AK503-0001). The assay was performed following the manufacturer's instructions. […] The Fluor de Lys substrate was added in a culture media. After 30 min 37° C., 1 volume of the developer was added. After 15 min 37° C., the fluorophore was excited with 355 nm light and the emitted light (450 nm) was being detected on a fluorometric plate reader (Clariostar: BMG, Buckinghamshire, UK). For each experiment, controls (containing CD4 enriched Jurkat T lymphocyte cells or Ramos B lymphocyte cells and buffer), a blank incubation (containing buffer but no CD4 enriched Jurkat T lymphocyte cells or Ramos B lymphocyte cells) and samples (containing compound dissolved in DMSO or ADCs dissolved in PBS and further diluted in medium) were run in parallel. In each test the blank value was subtracted from both the control and the sample values. The control sample represented 100% of substrate deacetylation. For each sample the fluorescence was expressed as a percentage of the mean value of the controls.

The test system of experiment [2] is Jurkat CD4^+ (human T lymphocyte cells). Briefly: Cytotoxicity assay, CellTiter-Glo Luminescent Cell Viability Assay, Jurkat. To be noted: 72 h, read-out: IC50 value of Luminescent Cell Viability Assay. On the procedure: In vitro cytotoxicity assay was conducted for 3 days with the CD4 enriched Jurkat T cells and treated with various amounts of drugs using CellTiter-Glo® Luminescent Cell Viability Assay Kit (Promega, G7571). The assay was performed following the manufacturer's instructions. Briefly, cells were plated in 96-well plates at […] in 100 μl RPMI 1640 medium with 10% heat-inactivated Fetal Bovine Serum. The following day, a serial ten-fold dilution for eight points of drugs (Romidepsin, TMB-355-ADC, and TMB-355) was used. The final concentration in the test was ranging from 1×10^3 nM to 1×10^−4 nM for Romidepsin, from 6.67×10^2 nM to 6.67×10^−5 nM for TMB-355-ADC and TMB-355. The cells were then incubated at 37° C. for 72 h. Subsequently, 100 μL/well of CellTiter-Glo reagent was added and the cells were shaken for 2 minutes and then incubated for an additional 10 minutes at room temperature. After the incubation time, luminescence (light) was measured in a luminometer (Clariostar: BMG, Buckinghamshire, UK). The IC50 corresponds to the drug concentration which achieves 50% activity of untreated control cultures. IC50 values were calculated using the software package Prism 6.0 (GraphPad Software Inc., San Diego, Calif.) with variable slope option.
For orientation: In ATP-based viability assays light output follows the ATP content of the culture.

Experiment [3] has as its system HDAC. Briefly: Cellular HDAC enzymatic assay (FLUOR DE LYS HDAC fluorometric cellular activity assay) in Ramos B lymphocyte cells. The procedure: as §1
Experiment [4] relates to Ramos(human B lymphocyte). Briefly: Cytotoxicity assay, CellTiter-Glo Luminescent Cell Viability Assay, Ramos. To be noted: 72 h, read-out: IC50 value of Luminescent Cell Viability Assay.

Where two headings read alike, the source gives them in different places. Bounds are passed on as bounds.

For orientation: IC50 means the concentration that gives 50% inhibition.

For the molecule `C/C=C1\NC(=O)[C@H]2CSSCC/C=C/[C@H](CC(=O)N[C@H](C(C)C)C(=O)N2)OC(=O)[C@H](C(C)C)NC1=O` [Romidepsin], the IC50 with HDAC [1] (read-out: IC50 value of Cellular HDAC enzymatic assay; Jurkat CD4^+ (human T lymphocyte cells), 3 days) was 1.6 nM; in experiment [2] (Homo sapiens, Jurkat), 1.6 nM; with HDAC [3] (read-out: IC50 value of Cellular HDAC enzymatic assay; Ramos (human B lymphocyte), 3 days), 3.9 nM; in experiment [4] (Homo sapiens, Ramos), 2.2 nM.

Regarding TMB-355, the IC50 was more than 667 nM in the experiment with HDAC [1] (Jurkat CD4^+ (human T lymphocyte cells), 3 days; read-out: IC50 value of Cellular HDAC enzymatic assay); more than 667 nM in experiment [2] (Jurkat CD4^+ (human T lymphocyte cells)); more than 667 nM with HDAC [3] (Ramos (human B lymphocyte), 3 days; read-out: IC50 value of Cellular HDAC enzymatic assay); more than 667 nM in experiment [4] (Ramos (human B lymphocyte)).

The values are drawn from patent US20240398969A1, “ANTIBODY-DRUG CONJUGATES FOR TREATING INFECTIONS OF HUMAN IMMUNODEFICIENCY VIRUS (HIV)” (priority 2023, published 2024).
